According to PubChem BioAssay AID256 (DTP/NCI, 2004):
Inconclusive results and toxic doses are left out.

Tested on: CD2F1 mice, L1210 leukemia ip, survival T/C
Assay: NCI In Vivo Anticancer Drug Screen. Data for tumor model L1210 Leukemia (intraperitoneal) in CD2F1 (CDF1) mice
Settings: higher = longer survival
Summary of the method: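 Read-out first: treated-group measurement over vehicle-control measurement, expressed as a ratio. Animals bore a transplanted tumor line and were dosed with compound or vehicle.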

SMILES: COc1cc([C@@H]2c3cc4c(cc3[C@@H](OC3OC5COC(C)OC5C(O)C3O)[C@H]3COC(=O)[C@H]23)OCO4)cc(OC)c1O (stereo partly drawn)
- T/C (endpoint: mean survival time, dose: 0.5 mg/kg/injection, schedule: Q03HX024 (ip), vehicle: saline): 165 % of control
- T/C (endpoint: mean survival time, dose: 1.0 mg/kg/injection, schedule: Q03HX024 (ip), vehicle: saline): 360 % of control
- T/C (endpoint: mean survival time, dose: 2.0 mg/kg/injection, schedule: Q01DX009 (ip), vehicle: saline): 151 % of control
- T/C (endpoint: mean survival time, dose: 2.0 mg/kg/injection, schedule: Q03HX024 (ip), vehicle: saline): 124 % of control
- T/C (endpoint: mean survival time, dose: 4.0 mg/kg/injection, schedule: Q01DX009 (ip), vehicle: saline): 246 % of control
- T/C (endpoint: mean survival time, dose: 8.0 mg/kg/injection, schedule: Q01DX009 (ip), vehicle: saline): 111 % of control
- T/C (endpoint: mean survival time, dose: 8.0 mg/kg/injection, schedule: Q04DX003 (ip), vehicle: saline): 181 % of control
- T/C (endpoint: mean survival time, dose: 16.0 mg/kg/injection, schedule: Q01DX009 (ip), vehicle: saline): 87 % of control
- T/C (endpoint: mean survival time, dose: 16.0 mg/kg/injection, schedule: Q04DX003 (ip), vehicle: saline): 289 % of control
- T/C (endpoint: mean survival time, dose: 32.0 mg/kg/injection, schedule: Q04DX003 (ip), vehicle: saline): 542 % of control
- T/C (endpoint: median survival time, dose: 1.0 mg/kg/injection, schedule: Q03HX008 (ip), vehicle: other): 162 % of control
- T/C (endpoint: median survival time, dose: 1.0 mg/kg/injection, schedule: Q03HX016 (ip), vehicle: other): 175 % of control
- T/C (endpoint: median survival time, dose: 1.0 mg/kg/injection, schedule: Q03HX024 (ip), vehicle: other): 218 % of control
- T/C (endpoint: median survival time, dose: 2.0 mg/kg/injection, schedule: Q01DX009 (ip), vehicle: other): 175 % of control
- T/C (endpoint: median survival time, dose: 2.0 mg/kg/injection, schedule: Q01DX009 (ip), vehicle: saline): 152 % of control
- T/C (endpoint: median survival time, dose: 2.0 mg/kg/injection, schedule: Q01DX009 (sc), vehicle: other): 150 % of control
- T/C (endpoint: median survival time, dose: 2.0 mg/kg/injection, schedule: Q03HX008 (ip), vehicle: other): 175 % of control
- T/C (endpoint: median survival time, dose: 2.0 mg/kg/injection, schedule: Q03HX016 (ip), vehicle: other): 212 % of control
- T/C (endpoint: median survival time, dose: 2.0 mg/kg/injection, schedule: Q03HX024 (ip), vehicle: other): 206 % of control
- T/C (endpoint: median survival time, dose: 4.0 mg/kg/injection, schedule: Q01DX009 (ip), vehicle: other): 218 % of control
- T/C (endpoint: median survival time, dose: 4.0 mg/kg/injection, schedule: Q01DX009 (ip), vehicle: saline): 195 % of control
- T/C (endpoint: median survival time, dose: 4.0 mg/kg/injection, schedule: Q01DX009 (oral), vehicle: Klucel (hydroxypropylcellulose) (HPC)): 105 % of control
- T/C (endpoint: median survival time, dose: 4.0 mg/kg/injection, schedule: Q01DX009 (sc), vehicle: other): 168 % of control
- T/C (endpoint: median survival time, dose: 4.0 mg/kg/injection, schedule: Q03HX008 (ip), vehicle: other): 181 % of control
- T/C (endpoint: median survival time, dose: 4.0 mg/kg/injection, schedule: Q03HX008 (oral), vehicle: Klucel (hydroxypropylcellulose) (HPC)): 111 % of control
- T/C (endpoint: median survival time, dose: 4.0 mg/kg/injection, schedule: Q03HX016 (ip), vehicle: other): 187 % of control
- T/C (endpoint: median survival time, dose: 4.0 mg/kg/injection, schedule: Q03HX016 (oral), vehicle: Klucel (hydroxypropylcellulose) (HPC)): 100 % of control
- T/C (endpoint: median survival time, dose: 4.0 mg/kg/injection, schedule: Q03HX024 (ip), vehicle: other): 118 % of control
- T/C (endpoint: median survival time, dose: 4.0 mg/kg/injection, schedule: Q03HX024 (oral), vehicle: Klucel (hydroxypropylcellulose) (HPC)): 88 % of control
- T/C (endpoint: median survival time, dose: 8.0 mg/kg/injection, schedule: Q01DX001 (ip), vehicle: other): 162 % of control
- T/C (endpoint: median survival time, dose: 8.0 mg/kg/injection, schedule: Q01DX001 (sc), vehicle: other): 112 % of control
- T/C (endpoint: median survival time, dose: 8.0 mg/kg/injection, schedule: Q01DX009 (ip), vehicle: saline): 220 % of control
- T/C (endpoint: median survival time, dose: 8.0 mg/kg/injection, schedule: Q01DX009 (oral), vehicle: Klucel (hydroxypropylcellulose) (HPC)): 116 % of control
- T/C (endpoint: median survival time, dose: 8.0 mg/kg/injection, schedule: Q01DX009 (sc), vehicle: other): 118 % of control
- T/C (endpoint: median survival time, dose: 8.0 mg/kg/injection, schedule: Q03HX008 (ip), vehicle: other): 87 % of control
- T/C (endpoint: median survival time, dose: 8.0 mg/kg/injection, schedule: Q03HX008 (oral), vehicle: Klucel (hydroxypropylcellulose) (HPC)): 122 % of control
- T/C (endpoint: median survival time, dose: 8.0 mg/kg/injection, schedule: Q03HX016 (oral), vehicle: Klucel (hydroxypropylcellulose) (HPC)): 100 % of control
- T/C (endpoint: median survival time, dose: 8.0 mg/kg/injection, schedule: Q03HX024 (ip), vehicle: other): 112 % of control
- T/C (endpoint: median survival time, dose: 8.0 mg/kg/injection, schedule: Q03HX024 (oral), vehicle: Klucel (hydroxypropylcellulose) (HPC)): 88 % of control
- T/C (endpoint: median survival time, dose: 8.0 mg/kg/injection, schedule: Q04DX003 (ip), vehicle: other): 193 % of control
- T/C (endpoint: median survival time, dose: 8.0 mg/kg/injection, schedule: Q08DX002 (ip), vehicle: other): 168 % of control
- T/C (endpoint: median survival time, dose: 16.0 mg/kg/injection, schedule: Q01DX001 (ip), vehicle: other): 162 % of control
- T/C (endpoint: median survival time, dose: 16.0 mg/kg/injection, schedule: Q01DX009 (ip), vehicle: other): 100 % of control
- T/C (endpoint: median survival time, dose: 16.0 mg/kg/injection, schedule: Q01DX009 (oral), vehicle: Klucel (hydroxypropylcellulose) (HPC)): 122 % of control
- T/C (endpoint: median survival time, dose: 16.0 mg/kg/injection, schedule: Q01DX009 (sc), vehicle: other): 93 % of control
- T/C (endpoint: median survival time, dose: 16.0 mg/kg/injection, schedule: Q03HX008 (oral), vehicle: Klucel (hydroxypropylcellulose) (HPC)): 111 % of control
- T/C (endpoint: median survival time, dose: 16.0 mg/kg/injection, schedule: Q03HX016 (oral), vehicle: Klucel (hydroxypropylcellulose) (HPC)): 111 % of control
- T/C (endpoint: median survival time, dose: 16.0 mg/kg/injection, schedule: Q03HX024 (oral), vehicle: Klucel (hydroxypropylcellulose) (HPC)): 94 % of control
